Patent US11510887B2, “Sobetirome in the treatment of myelination diseases” (Oregon Health & Science University, priority 2013, dated 2022)

Assays:
[1] = test system: corpus callosum of mice following injection of lysolecithin; test: Lysolecithin toxin model of focal demyelination; assay type: in vivo, C57BL/6 mice; details: 8 days after lysolecithin injection, daily i.p. from 7 days before to 8 days after, sobetirome 1.0 mg/kg/day, T3 0.4 mg/kg/day
Description: FIG. 1: Sobetirome reduced demyelination in the corpus callosum of mice following injection of lysolecithin. Top, BlackGold® stain is specific for myelin fibers and cresyl violet is used as a counterstain. Mice received stereotactic injections of 2 μL of PBS or 2% lysolecithin in the corpus callosum. A white arrow indicates the path of the injection needle and a black box indicates the lesion site. An enlarged image of the boxed lesion site is shown to the right. Bottom, brain sections of 30 μm were stained with FluoroMyelin™, anti-PDGFR-α and DAPI. Hypothyroidism was induced with drinking water treatment, and both hypothyroid and control mice received vehicle injections. T3 (0.4 mg/kg) and sobetirome (1 mg/kg) were administered by daily i.p. injections starting 7 days before stereotactic injection of lysolecithin. Mice were euthanized 8 days after stereotactic injection of 2% lysolecithin, and brains were harvested and processed for histological analysis.
Lysolecithin was injected into the corpus callosum using stereotactic equipment at the x, y, z coordinates of +1.000, +1.050, and +2.000 mm from the Bregma point using a beveled needle with the bevel facing caudally. To minimize trauma, 2 μL of 2% lysolecithin or 2 μL of PBS was injected over four minutes using a micropump injector and the beveled needle was held in place for five minutes before withdrawal. […]

C57BL/6 mice with EAE = test: EAE induced with MOG 35-55 peptide; assay type: in vivo, C57BL/6 female mice
Description: FIG. 2: Sobetirome reduces demyelination in mice with EAE. […] EAE was induced in female mice with MOG 35-55 peptide. On day 17 post immunization, mice were randomized based on their EAE scores and daily i.p. injections of sobetirome (n=8) or vehicle (n=8) were started. Mice were euthanized after 11 days of treatment and spinal cords were prepared for histological evaluation. The mean percentage of ventrolateral demyelination for vehicle treated mice was 17.25 (SD+/−7.09) and 9.11 (SD+/−4.96) for sobetirome (p<0.01).
This study was performed to assess the effects of sobetirome on EAE in C57BL/6 female mice immunized with MOG 35-55 peptide. Seventeen days after immunization, at peak of clinical disease, mice were randomized to receive daily injections of sobetirome (1 mg/kg/day) or vehicle. After 11 days of treatment, mice were euthanized and processed for histologic examination. […] This is because the degree of inflammation within the spinal cords was similar between the two groups (Table 1) and much of the short term paralysis that occurs in EAE is secondary to effects of inflammation on neural function. […] Much of the effect appears related to protection of axons and myelin from damage (FIG. 3). Thus, sobetirome has a neuroprotective effect that decreases axonal damage and demyelination.

Structure (SMILES)	areas of demyelination compared with vehicle [1]	% CD4 Staining (T cell marker) (C57BL/6 mice with EAE; immunofluorescent staining of lumbosacral spinal cord sections, vehicle 1.01) [%]	% CD11b Staining (macrophage marker) (C57BL/6 mice with EAE; immunofluorescent staining of lumbosacral spinal cord sections, vehicle 3.89) [%]	EAE clinical scores versus vehicle (C57BL/6 mice with EAE; sobetirome 1 mg/kg/day, 11 days of treatment from day 17 after immunization)	demyelination in lateral columns of the lumbosacral cord versus vehicle (C57BL/6 mice with EAE; sobetirome 1 mg/kg/day, 11 days of treatment, p<0.01)	mean percentage of ventrolateral demyelination (area of damage in ventrolateral white matter) (C57BL/6 mice with EAE; spinal cord, after 11 days of daily i.p. treatment started day 17 post immunization, n=8, vehicle 17.25 (SD+/−7.09), p<0.01)
Cc1cc(OCC(=O)O)cc(C)c1Cc1ccc(O)c(C(C)C)c1 [Sobetirome]	much smaller areas of demyelination	1.24	5.76	did not differ significantly	significantly less demyelination	9.11 (SD+/−4.96) %
N[C@@H](Cc1cc(I)c(Oc2ccc(O)c(I)c2)c(I)c1)C(=O)O [T3, triiodothyronine]	much smaller areas of demyelination	–	–	–	–	–
